Laboratory results: patent publication US11584709B2, “Multitarget drug for treating diseases in mammals” (“PHARMENTERPRISES EURASIA” LIMITED LIABILITY COMPANY, priority 2017, dated 2023)

Tests used:
[1] = molecular target: T1, tachykinin receptor type 1 (NK1R) (Homo sapiens, UniProt P25103); assay: Activity of tachykinin receptor type 1 (NK1R), intracellular calcium, U373 cells; format: cell-based; settings: antagonist, [Sar9, Met(O2)11]-SP (1 nM)
T1 construct: endogenous in cells; host or cells: U373 cells
Description: Compound 1 dissolved in DMSO to a concentration of 100 mM; then a stock solution was serially diluted with DMSO. The maximum starting concentration of the substance is 100 μM. The effect was determined at 5 concentrations of the tested compounds, each concentration was studied twice. U373 cells expressing NK1R were used in the experiment, said cells, after the preincubation with an [Sar9, Met(O2)11]-SP (1 nM) […], were incubated with Compound 1. The activity of receptors was determined according to the intracellular calcium concentration by the fluorescence spectroscopy (Glia. 1992; 6(2):89-95).

[2] = Chronic (90-day) oral administration, body weight of rabbits; format: in vivo, Chinchilla rabbits; settings: for period in which the lag in body weight gain was observed: female rabbits, daily intragastric
Description: The effect of 90-day, oral administration of Compound 1 in doses of 1.5 mg/kg, 7.5 mg/kg and 15 mg/kg on the body weight of male and female Chinchilla rabbits was studied.

[3] = molecular target: T2, prokineticin receptor type 1 (PK1) (Homo sapiens, UniProt Q8TCW9); assay: Activity of prokineticin receptors type 1 (PK1), intracellular calcium, HEK-293 cells; format: cell-based; settings: antagonist, PK1 agonist (3 nM)
T2 construct: expressed in transfected cells; host or cells: HEK-293 cells
Description: Compound 1 was dissolved in DMSO to a concentration of 100 mM; then a stock solution was serially diluted with DMSO. The maximum starting concentration of the substance is 100 μM. The effect was determined at 5 concentrations of the tested compounds, each concentration was studied twice. HEK-293 cells expressing prokineticin receptors PK1 were used in the experiment, these cells, after preincubation with a PK1 agonist (3 nM), were incubated with the test compound. The activity of receptors was determined according to the intracellular calcium concentration by the fluorescence spectroscopy (Mol Pharmacol. 2005 June; 67(6):2070-6).

[4] = test system: imiquimod-induced ear psoriasis; assay: Mouse model of imiquimod-induced ear psoriasis; format: in vivo, female balb/c mice; settings: for The gain in the thickness of the right (affected) ear relatively day 0: 0.3% ointment, M ± m, n = 10
Description: Psoriasis was simulated in female balb/c mice by applying Aldar cream (5% imiquimod) on the inner side of the right ear daily 1 time per day for 10 days (J Immunol. 2009 May 1; 182(9):5836-45). Vaseline was applied to intact animals: 20 mg on the right ear.
The assessment of the development of pathology was performed on 2nd, 4th, 6th, 8th and 10th day before the next application of Aldar cream by measuring the thickness of the left and right ears.

[5] = test system: diarrhea induced by castor oil; assay: Mouse model of diarrhea induced by castor oil; format: in vivo, Balb/c mice
Description: Balb/c mice, which starved for 24 hours, were given castor oil intragastrically. Then the animals were encaged into individual cages with a bottom covered with white paper, and time before the onset of diarrhea was noted. The observation time is 4 hours (J Pharm Pharmacol. 2015 February; 67(2):244-54).

[6] = molecular target: T3, tachykinin receptor type 2 (NK2R) (Homo sapiens, UniProt P21452); assay: Activity of tachykinin receptor type 2 (NK2R), intracellular calcium, CHO cells; format: cell-based; settings: antagonist, [Nleu10]-NKA-(4-10) (10 nM) agonist
T3 construct: expressed in transfected cells; host or cells: CHO cells
T3 sequence (P21452 1-398): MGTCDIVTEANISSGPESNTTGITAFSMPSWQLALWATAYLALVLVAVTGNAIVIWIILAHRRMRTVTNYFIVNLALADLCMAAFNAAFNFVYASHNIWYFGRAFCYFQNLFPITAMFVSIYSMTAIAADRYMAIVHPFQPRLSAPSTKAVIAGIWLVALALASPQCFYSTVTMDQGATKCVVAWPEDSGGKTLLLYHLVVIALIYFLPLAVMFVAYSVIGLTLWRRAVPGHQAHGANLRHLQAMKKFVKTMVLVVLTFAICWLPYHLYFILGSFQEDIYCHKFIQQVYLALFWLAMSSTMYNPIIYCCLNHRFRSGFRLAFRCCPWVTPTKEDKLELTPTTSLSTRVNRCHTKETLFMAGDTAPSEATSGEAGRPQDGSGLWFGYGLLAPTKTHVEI
Description: Compound 1 was dissolved in DMSO to a concentration of 100 mM; then a stock solution was serially diluted with DMSO. The maximum starting concentration of the substance is 100 μM. The effect was determined at 5 concentrations of the tested compounds, each concentration was studied twice. CHO cells expressing NK2R were used in the experiment, said sells, after the preincubation with an [Nleu10]-NKA-(4-10) (10 nM) agonist, were incubated with the test compound. The activity of receptors was determined according to the intracellular calcium concentration by fluorescence spectroscopy (Biochem Biophys Res Commun. 1994 May 16; 200(3):1512-20).

[7] = 90-day oral, 1.5, 7.5 and 15 mg/kg, male and female rabbits

T1 sequence (P25103 whole entry): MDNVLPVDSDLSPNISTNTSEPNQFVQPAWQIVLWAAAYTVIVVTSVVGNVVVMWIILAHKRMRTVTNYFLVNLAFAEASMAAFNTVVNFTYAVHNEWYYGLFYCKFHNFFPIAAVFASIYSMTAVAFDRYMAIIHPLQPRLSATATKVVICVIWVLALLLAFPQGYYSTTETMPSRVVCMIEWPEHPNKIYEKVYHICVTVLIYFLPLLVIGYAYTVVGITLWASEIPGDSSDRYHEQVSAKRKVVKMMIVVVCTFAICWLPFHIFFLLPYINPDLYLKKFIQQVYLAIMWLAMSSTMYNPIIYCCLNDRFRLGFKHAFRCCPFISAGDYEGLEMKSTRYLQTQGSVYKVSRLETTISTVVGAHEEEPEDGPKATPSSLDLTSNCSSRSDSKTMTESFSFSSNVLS
T2 sequence (Q8TCW9 whole entry): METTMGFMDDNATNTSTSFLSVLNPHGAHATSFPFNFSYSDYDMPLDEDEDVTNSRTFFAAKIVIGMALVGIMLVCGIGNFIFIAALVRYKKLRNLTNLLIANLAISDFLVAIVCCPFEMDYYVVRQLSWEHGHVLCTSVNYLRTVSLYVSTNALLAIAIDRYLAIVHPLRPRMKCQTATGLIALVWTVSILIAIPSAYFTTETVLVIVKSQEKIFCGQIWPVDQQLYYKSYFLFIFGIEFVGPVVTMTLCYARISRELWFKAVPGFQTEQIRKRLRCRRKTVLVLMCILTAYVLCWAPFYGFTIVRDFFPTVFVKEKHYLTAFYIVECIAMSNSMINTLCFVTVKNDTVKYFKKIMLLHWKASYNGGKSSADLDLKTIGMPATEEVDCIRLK

For `O=C(Cc1ccc(O)cc1)N[C@@H](Cc1ccccc1)C(=O)OCc1ccccc1` [Compound 1, benzyl (2S)-2-[2-(4-hydroxyphenyl)acetamido]-3-phenylpropanoate], the IC50 [1] was 4.1 µM, the “general condition, appearance, and mobility” value [2, 7] was “satisfactory and did not differ in the experimental and control groups” and the “weight gain compared with parallel controls” value [2, 7] was “somewhat lagging behind in weight gain”. For the same molecule, the “feed and water intake” value ([2]; accompanying the decrease in body weight gain) was “decrease in feed and water intake”, the “period in which the lag in body weight gain was observed” value ([2]; 7.5 mg/kg) was “practically, during the entire period of the drug administration” and the “period in which the lag in body weight gain was observed” value ([2]; 15 mg/kg) was “practically, during the entire period of the drug administration”. The “dynamics of the body weight in the recovery period” value ([2]; recovery period, control versus experimental animals) was “no differences in the dynamics of the body weight”, the IC50 [3] was 5.7 µM and the “The gain in the thickness of the right (affected) ear relatively day 0” value (“The gain … (affected) ear relatively day 0” below) ([4]; day 2) was 14.1%. The “The gain … (affected) ear relatively day 0” value ([4]; day 4) was 22.1%, the “The gain … (affected) ear relatively day 0” value ([4]; day 6) was 28.0% and the “The gain … (affected) ear relatively day 0” value ([4]; day 8) was 19.4%. For the same molecule, the “The gain … (affected) ear relatively day 0” value ([4]; day 10) was 7.9%, the “reduction of the gain in the thickness of the right (affected) ear (in words)” value ([4]; summary of table 1) was “to the level of intact animals” and the “The time of onset of diarrhea” value ([5]; 50 mg/kg, M ± m, n = 10, observation 4 hours) was 42.00 ± 3.43& min. For the same molecule, the “increase of the time to the onset of diarrhea” value ([5]; summary of Table 6) was 2 times and the IC50 [6] was 8.4 µM.
